This is an account of results in ChEMBL document CHEMBL1151154, “Potential inhibitors of platelet aggregation from plant sources, V. Anthraquinones from seeds of Cassia obtusifolia and related compounds” (1990).

Common to all, as to format: functional
Assay [1] is described as follows: Antiplatelet activity in rat platelet rich plasma assessed as drug level causing inhibition of arachidonic acid-stimulated platelet aggregation pretreated 2 mins before arachidonic acid challenge.
A short description of assay [2]: Antiplatelet activity in rat platelet rich plasma assessed as drug level causing inhibition of ADP-stimulated platelet aggregation pretreated 2 mins before ADP challenge.
Assay [3] is described as follows: Antiplatelet activity in rat platelet rich plasma assessed as drug level causing inhibition of collagen-stimulated platelet aggregation pretreated 2 mins before collagen challenge.

Molecules are shown by their SMILES.

On to `O=C1c2ccccc2C(=O)c2c(O)ccc(O)c21` [QUINIZARIN], for which the Activity in assay [1], in assay [2] and in assay [3] was more than 0.25 mg/mL throughout.
In the case of `COc1c(O[C@@H]2O[C@H](CO)[C@@H](O)[C@H](O)[C@H]2O)c(C)cc2c1C(=O)c1c(O)cccc1C2=O`, the Activity turned out to be 0.05 mg/mL in assay [1], 0.25 mg/mL in assay [2] and 0.1 mg/mL in assay [3].
`COc1c(O)cc2c(c1O)C(=O)c1c(cc(C)c(O)c1OC)C2=O` [AURANTIOOBTUSIN]: the Activity in assay [1], in assay [2] and in assay [3] was more than 0.25 mg/mL in each case.
In the case of `O=C(O)c1cc(O)c2c(c1)C(=O)c1cccc(O)c1C2=O` [RHEIN], the Activity in assay [1], in assay [2] and in assay [3] was 0.25 mg/mL throughout.
Take `Cc1cc(O)c2c(c1)C(=O)c1cccc(O)c1C2=O` [CHRYSOPHANOL]: the Activity in assay [1], in assay [2] and in assay [3] was more than 0.25 mg/mL throughout.
Take `COc1c(O)c(C)cc2c1C(=O)c1c(O)cccc1C2=O` [OBTUSIFOLIN]: the Activity in assay [1] is 0.25 mg/mL; in assay [2], more than 0.25 mg/mL; in assay [3], 0.25 mg/mL.
On to `Cc1cc(O)c2c(c1)Cc1cccc(O)c1C2=O`, for which the Activity in assay [1], in assay [2] and in assay [3] was more than 0.25 mg/mL each time.
As for `COc1c(O[C@@H]2O[C@H](CO)[C@@H](O)[C@H](O)[C@H]2O)cc2c(c1O)C(=O)c1c(cc(C)c(O)c1OC)C2=O`, the Activity in assay [1] came to 0.05 mg/mL; in assay [2], 0.05 mg/mL; in assay [3], 0.1 mg/mL.
For the compound `COc1cc2c(c(OC)c1OC)C(=O)c1c(cc(C)c(O[C@@H]3O[C@H](CO)[C@@H](O)[C@H](O)[C@H]3O)c1OC)C2=O`, the results for the Activity in assay [1], in assay [2] and in assay [3] were 0.025 mg/mL, 0.025 mg/mL and 0.05 mg/mL, respectively.
As to `O=C1c2ccccc2C(=O)c2c1ccc(O)c2O` [ATHRAQUINONES A], the Activity in assay [1], in assay [2] and in assay [3] was more than 0.25 mg/mL each time.
For the compound `O=C1c2cccc(O)c2C(=O)c2c(O)cc(CO)cc21` [ALOE-EMODIN], the Activity in assay [1] is 0.25 mg/mL; in assay [2] it was more than 0.25 mg/mL; in assay [3], 0.25 mg/mL.
For `COc1cc2c(c(OC)c1OC)C(=O)c1c(cc(C)c(O)c1OC)C2=O` [CHRYSOOBTUSIN], the Activity in assay [1], in assay [2] and in assay [3] was 0.25 mg/mL each time.
Regarding `Cc1cc(O)c2c(c1)C(=O)c1cc(O)cc(O)c1C2=O` [EMODIN], the Activity in assay [1], in assay [2] and in assay [3] was more than 0.25 mg/mL in each case.
Consider `COc1cc(O)c2c(c1)C(=O)c1cc(C)cc(O)c1C2=O` [PHYSCION], for which the Activity was 0.25 mg/mL in assay [1], 0.25 mg/mL in assay [2] and more than 0.25 mg/mL in assay [3].
Take `O=C1c2ccc(O)cc2C(=O)c2ccc(O)cc21` [ANTHRAFLAVICACID]: the Activity in assay [1], in assay [2] and in assay [3] was more than 0.25 mg/mL throughout.
With `O=C1c2cccc(O)c2C(=O)c2c(O)cccc21` [DANTHRON], the Activity in assay [1], in assay [2] and in assay [3] was more than 0.25 mg/mL in each case.
